In ChEMBL document CHEMBL1127174, “Inhibition of cartilage breakdown by isothiazolones” (Bioorg Med Chem Lett, 1993):

Species on record: Bos taurus
Assay: In vitro ability to inhibit cartilage breakdown by using 1L-1beta stimulated bovine nasal cartilage assay
Type: functional

Row | IC50 | Structure (SMILES)
1 | 13.5 µM | COc1ccc(-n2sc3ncccc3c2=O)cc1
2 | > 30 µM | COc1ccc(-n2sc3ccccc3c2=O)cc1
3 | 3 µM | O=c1c2ccccc2sn1-c1ccccc1
4 | > 30 µM | CN(C)[C@@H]1C(O)=C(C(N)=O)C(=O)[C@@]2(O)C(O)=C3C(=O)c4c(O)cccc4[C@@](C)(O)[C@H]3C[C@@H]12 [TETRACYCLINE]

Continued, molecule first:

Row | Structure (SMILES) | IC50
5 | Nc1ccccc1C(=O)Nc1ccccc1 | > 30 µM
6 | COc1ccc2cc([C@H](C)C(=O)O)ccc2c1 [NAPROXEN] | > 30 µM
7 | O=c1c2ccccc2[se]n1-c1ccccc1 [EBSELEN] | 13 µM
8 | O=C(Nc1ccccc1)c1ccccc1O [SALICYLANILIDE] | > 30 µM
9 | O=c1ccsn1-c1ccccc1 | > 30 µM
10 | CNC(=O)C(Cc1ccc(OC)cc1)NC(=O)[C@H](CC(C)C)[C@H](C)C(=O)NO (single isomer, unassigned) | 3 µM
11 | O=c1c2ccccc2sn1-c1ccc(Cl)cc1 | 3.6 µM
12 | COc1ccc2c(c1)c(CC(=O)O)c(C)n2C(=O)c1ccc(Cl)cc1 [INDOMETHACIN] | > 30 µM
13 | O=c1c2cccnc2sn1-c1ccc(Cl)cc1 | 3.7 µM
